Measurements published in patent publication US20080248511A1, “METHODS TO QUENCH LIGHT FROM OPTICAL REACTIONS” (priority 2007, published 2008).

Experiments:
firefly luciferase = firefly luciferase (Photinus pyralis, UniProt P08659); assay: Detergent screen with Tergitol NP-9, firefly luciferase (Example 3); type: biochemical; details: 0.06% quencher in reagent solution; 0.5% Tergitol NP-9
Procedure: (§1) Unless otherwise specified, materials were obtained from Sigma-Aldrich.
(§2) The firefly luciferase and Renilla luciferase enzymes were diluted as follows. Firefly luciferase was diluted to 14 ng/ml in Delbecco's Minimal Essential (DMEM) medium (Gibco/Invitrogen) containing 0.1% Prionex®. Renilla luciferase was diluted to 10 ng/ml in DMEM medium containing 0.1% Prionex®.
(§3) The luciferase reactions were initiated by adding 50 μl of the firefly luciferase or Renilla luciferase enzyme solution to 50 μl of reagent solution. The reactions were performed as described above. The retained firefly luciferase and Renilla luciferase luminescence as well as the selectivity values for each quencher were calculated (Table 3). The values listed are based on 0.06% quencher in the reagent solution.

Renilla luciferase = molecular target: T1, Renilla luciferase (Renilla reniformis, UniProt P27652); assay: Detergent screen with Tergitol NP-9, Renilla luciferase (Example 3); type: biochemical; details: 0.5% Tergitol NP-9; for Retained Renilla Luminescence (%): 0.06% quencher in reagent solution; for Selectivity Value: retained firefly / retained Renilla, 0.06% quencher
T1 sequence (P27652 1-311): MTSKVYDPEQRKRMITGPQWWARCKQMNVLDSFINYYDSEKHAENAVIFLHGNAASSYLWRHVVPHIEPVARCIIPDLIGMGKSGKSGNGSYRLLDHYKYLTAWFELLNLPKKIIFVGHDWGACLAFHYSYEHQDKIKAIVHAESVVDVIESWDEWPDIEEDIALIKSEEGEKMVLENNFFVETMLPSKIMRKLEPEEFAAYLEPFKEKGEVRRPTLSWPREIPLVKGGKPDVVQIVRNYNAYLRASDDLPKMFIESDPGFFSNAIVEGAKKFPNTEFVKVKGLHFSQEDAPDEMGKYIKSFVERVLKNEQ
Procedure: as §1, §2, §3

Sequence of firefly luciferase (P08659 whole entry): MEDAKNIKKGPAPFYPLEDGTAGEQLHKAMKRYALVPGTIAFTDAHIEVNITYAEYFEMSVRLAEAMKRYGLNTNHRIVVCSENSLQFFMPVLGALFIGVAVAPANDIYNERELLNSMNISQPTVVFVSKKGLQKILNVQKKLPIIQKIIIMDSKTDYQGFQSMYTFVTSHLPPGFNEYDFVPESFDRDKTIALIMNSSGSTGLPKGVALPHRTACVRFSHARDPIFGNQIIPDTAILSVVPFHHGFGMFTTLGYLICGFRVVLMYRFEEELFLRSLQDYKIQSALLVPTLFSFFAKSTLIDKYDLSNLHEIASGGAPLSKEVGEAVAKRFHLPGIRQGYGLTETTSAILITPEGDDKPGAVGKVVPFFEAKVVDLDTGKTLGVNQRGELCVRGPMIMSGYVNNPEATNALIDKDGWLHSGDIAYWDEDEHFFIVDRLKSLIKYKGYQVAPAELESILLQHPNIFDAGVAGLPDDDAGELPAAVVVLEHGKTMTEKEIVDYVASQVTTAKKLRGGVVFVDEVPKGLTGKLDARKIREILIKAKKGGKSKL

Compound	Retained Firefly Luminescence (%) (firefly luciferase)	Retained Renilla Luminescence (%) (Renilla luciferase)	Selectivity Value (Renilla luciferase)
N-benzyl-N,N-dimethylloctan-1-aminium bromide	134%	13%	10.3
CCCCCCCCCCCC[N+](C)(C)Cc1ccccc1-c1ccccc1.[Br-] [N-(biphenyl-2-ylmethyl)-NN-dimethyldodecyan-1-ammonium bromide]	177.0%	0.8%	221.3
CCCCCCCCCCCC[N+](C)(C)C1c2ccccc2-c2ccccc21.[Br-] [N-dodecyl-N,N-dimethyl-9H-fluoren-9-aminium bromide]	37%	1%	37
